{"source": "patent US12065505B2", "about": "“Antibodies and antigen binding peptides for factor XIa inhibitors and uses thereof” (Bristol-Myers Squibb Company, priority 2021, dated 2024)", "tested_on": "rabbit plasma clotting time (aPTT)", "assay": "In vivo reversal of Compound A anticoagulant effect by Fab, rabbit plasma aPTT", "conditions": "Compound A 1 mg/kg IV, mean of 3 animals", "experimental": "In vivo experiments were conducted in accordance with the regulations of the Animal Care and Use Committee of the Bristol-Myers Squibb Company. Rabbits (male New Zealand White, 2 to 4 kg) were instrumented with indwelling catheters in the central ear artery for blood sampling and marginal ear vein for substance administration. Compound A was administered as a constant intravenous infusion at a dose of 1.0 mg/kg over 10 minutes. Beginning 20 minutes after the Compound A infusion was complete, the antibody Fab fragment 26D5-75616-348-F10-Fab-SHORT was administered as a constant intravenous infusion at a dose of 160 mg/kg over 10 minutes. […]\nThe anticoagulant effects of Compound A were measured in activated partial thromboplastin time (aPTT). The aPTT was determined using ACTIN® FS (Siemens/Dade-Behring) following the directions in the package insert. […] The clotting time was the time in seconds from the moment calcium chloride was added until a clot was detected. […]"}
{"smiles": "C[C@@H]1CCC[C@H](n2cnc(-c3cc(Cl)ccc3-n3cc(Cl)nn3)cc2=O)c2cc(ccn2)-c2c(cnn2C(F)F)NC1=O", "note": "[Compound A, (5R,9S)-9-(4-(5-chloro-2-(4-chloro-1H-1,2,3-triazol-1-yl)phenyl)-6-oxopyrimidin-1(6H)-yl)-21-(difluoromethyl)-5-methyl-21H-3-aza-1(4,2)-pyridina-2(5,4)-pyrazolacyclononaphan-4-one, reference compound]", "values": [{"measurement": "rabbit plasma aPTT increase relative to baseline", "result": "approximately 2 fold"}]}
